Source: ChEMBL document CHEMBL5614422, “Design, synthesis and biological evaluation of N-salicyloyl tryptamine derivatives as multifunctional neuroprotectants for the treatment of ischemic stroke” (Eur J Med Chem, 2024)
In brackets after ≈: the same amount, converted by molar mass. Blank lines part the entries; values can stand above or below the compound they belong to.

Experiments:
[1] = system: HT-22; assay: Neuroprotective activity against OGD/R induced cell damage in mouse HT-22 cells assessed as cell viability at 10 uM measured after 24 hrs by MTT assay (reference value: 69.01 +/-2.90%); assay type: functional; conditions: read-out: Activity
[2] = Cytotoxicity against mouse HT-22 cells assessed as cell viability incubated for 24 hrs by CCK-8 method; assay type: toxicity, cell-based
[3] = Cytotoxicity against mouse BV-2 cells assessed as cell viability incubated for 24 hrs by CCK-8 method; assay type: toxicity, cell-based
[4] = Antioxidant activity assessed as trolox equivalent of ORAC radical scavenging activity at 0.125 to 2 uM by AAPH based automatic microplate reader analysis; assay type: functional; conditions: dose 0.125-2 µM
[5] = Permeability of the compound by PAMPA method; assay type: ADME; conditions: read-out: permeability
[6] = system: HT-22; assay: Anti-apoptotic activity in OGD/R mouse HT-22 cells assessed as early apoptotic cells at 10 uM by annexin V-FITC and PI staining based flow cytometry analysis (reference value: 9.51%); assay type: functional
[7] = system: HT-22; assay: Anti-apoptotic activity in OGD/R mouse HT-22 cells assessed as viable cells at 10 uM by annexin V-FITC and PI staining based flow cytometry analysis (reference value: 83.09%); assay type: functional; conditions: read-out: Activity
[8] = system: HT-22; assay: Anti-apoptotic activity in OGD/R mouse HT-22 cells assessed as late apoptotic cells at 10 uM by annexin V-FITC and PI staining based flow cytometry analysis (reference value: 7.26%); assay type: functional
[9] = system: HT-22; assay: Anti-apoptotic activity in OGD/R mouse HT-22 cells assessed as necrotic cells at 10 uM by annexin V-FITC and PI staining based flow cytometry analysis (reference value: 0.14%); assay type: functional
[10] = system: HT-22; assay: Antioxidant activity against OGD/R induced damage in mouse HT-22 cells assessed as decrease in proportion of mitochondrial depolarized cells at 10 uM by JC-1 fluorescence based flow cytometry analysis (reference value: 91.7%); assay type: functional; parameters: scale not given: the % may be the effect or the level left
[11] = Aqueous solubility of the compound incubated for 72 hrs under shaking condition by HPLC analysis; assay type: physicochemical

SMILES: Cc1ccc(C(=O)NCCc2c[nH]c3cc(N(C)C)ccc23)c(O)c1
viability at 10 µM [1]: 88.9%
IC50 at 24 h [2]: 46.4 µM
IC50 at 24 h [3]: 52.4 µM

SMILES: COc1cccc(C(=O)NCCc2c[nH]c3ccccc23)c1O
viability at 10 µM [1]: 87.8%
IC50 at 24 h [2]: > 100 µM
IC50 at 24 h [3]: > 100 µM

SMILES: Cc1ccc(C(=O)NCCc2c[nH]c3ccc(F)cc23)c(O)c1
viability at 10 µM [1]: 83.9%
Activity [4]: 3.1
IC50 at 24 h [2]: > 100 µM
IC50 at 24 h [3]: > 100 µM

SMILES: CN1CCN(C2=Nc3cc(Cl)ccc3Nc3ccccc32)CC1 [CLOZAPINE]
Papp [5]: 8.34 ×10⁻⁶ cm/s

SMILES: COc1ccc2[nH]cc(CCNC(=O)c3ccc(C)cc3O)c2c1
viability at 10 µM [1]: 74%
IC50 at 24 h [2]: > 100 µM
IC50 at 24 h [3]: > 100 µM

SMILES: O=C(NCCc1c[nH]c2ccccc12)c1c(O)cccc1F
viability at 10 µM [1]: 87.7%
IC50 at 24 h [2]: > 100 µM
IC50 at 24 h [3]: > 100 µM

SMILES: Cc1ccc(C(=O)NCCc2c[nH]c3cc(F)cc(F)c23)c(O)c1
viability at 10 µM [1]: 89.2%
IC50 at 24 h [2]: 61.9 µM
IC50 at 24 h [3]: 32.7 µM

SMILES: O=C(NCCc1c[nH]c2ccccc12)c1ccc(Cl)cc1O
viability at 10 µM [1]: 65.8%
IC50 at 24 h [2]: 99.7 µM
IC50 at 24 h [3]: 53.4 µM

SMILES: O=C(NCCc1c[nH]c2ccccc12)c1cc(Br)ccc1O
viability at 10 µM [1]: 73.4%
IC50 at 24 h [2]: 64.7 µM
IC50 at 24 h [3]: 68.2 µM

SMILES: COc1ccc2c(CCNC(=O)c3ccc(C)cc3O)c[nH]c2c1
viability at 10 µM [1]: 61.5%
IC50 at 24 h [2]: 102 µM
IC50 at 24 h [3]: > 100 µM

SMILES: Cc1ccc(C(=O)NCCc2c[nH]c3c(N(C)C)cccc23)c(O)c1
viability at 10 µM [1]: 87.1%
IC50 at 24 h [2]: 59.8 µM
IC50 at 24 h [3]: > 100 µM

SMILES: Cc1ccc(C(=O)NCCc2c[nH]c3ccc(Br)cc23)c(O)c1
viability at 10 µM [1]: 67.8%
IC50 at 24 h [2]: 76.1 µM
IC50 at 24 h [3]: 88.6 µM

SMILES: COc1ccc(O)c(C(=O)NCCc2c[nH]c3ccccc23)c1
viability at 10 µM [1]: 88.5%
Activity [6]: 5.54%
IC50 at 24 h [2]: > 100 µM
viability at 10 µM [7]: 89.1%
Activity [8]: 5.18%
Activity [9]: 0.16%
IC50 at 24 h [3]: 51 µM

SMILES: Cc1ccc(O)c(C(=O)NCCc2c[nH]c3ccccc23)c1
viability at 10 µM [1]: 76.5%
IC50 at 24 h [2]: 51.1 µM
IC50 at 24 h [3]: 50.2 µM

SMILES: O=C(NCCc1c[nH]c2ccccc12)c1ccc(Br)cc1O
viability at 10 µM [1]: 76.2%
IC50 at 24 h [2]: > 100 µM
IC50 at 24 h [3]: > 100 µM

SMILES: Cc1ccc(C(=O)NCCc2c[nH]c3ccc(Cl)cc23)c(O)c1
viability at 10 µM [1]: 76%
IC50 at 24 h [2]: 61.2 µM
IC50 at 24 h [3]: 80.5 µM

SMILES: Cc1ccc(C(=O)NCCc2c[nH]c3cc(C)ccc23)c(O)c1
viability at 10 µM [1]: 60.2%
IC50 at 24 h [2]: > 100 µM
IC50 at 24 h [3]: > 100 µM

SMILES: CNc1cccc2c(CCNC(=O)c3ccc(C)cc3O)c[nH]c12
viability at 10 µM [1]: 80.8%
IC50 at 24 h [2]: > 100 µM
IC50 at 24 h [3]: 28.9 µM

SMILES: Cc1ccc(C(=O)NCCc2c[nH]c3c(F)cccc23)c(O)c1
viability at 10 µM [1]: 92.5%
IC50 at 24 h [2]: 86.2 µM
IC50 at 24 h [3]: 43 µM

SMILES: COc1cc(Cl)c2c(CCNC(=O)c3ccc(C)cc3O)c[nH]c2c1
viability at 10 µM [1]: 60.1%
IC50 at 24 h [2]: > 100 µM
IC50 at 24 h [3]: > 100 µM

SMILES: O=C(NCCc1c[nH]c2ccccc12)c1cccc(Cl)c1O
viability at 10 µM [1]: 87.9%
IC50 at 24 h [2]: 52 µM
IC50 at 24 h [3]: 50.4 µM

SMILES: Cc1ccc(C(=O)NCCc2c[nH]c3cccc(Cl)c23)c(O)c1
viability at 10 µM [1]: 71.1%
IC50 at 24 h [2]: > 100 µM
IC50 at 24 h [3]: 89.1 µM

SMILES: Cc1ccc(C(=O)NCCc2c[nH]c3c(C)cccc23)c(O)c1
viability at 10 µM [1]: 79.5%
IC50 at 24 h [2]: > 100 µM
IC50 at 24 h [3]: 39.1 µM

SMILES: O=C(NCCc1c[nH]c2ccccc12)c1cccc(Br)c1O
viability at 10 µM [1]: 79.7%
IC50 at 24 h [2]: 48.5 µM
IC50 at 24 h [3]: 85.4 µM

SMILES: Cc1ccc(C(=O)NCCc2c[nH]c3cc(F)ccc23)c(O)c1
viability at 10 µM [1]: 77.7%
IC50 at 24 h [2]: > 100 µM
IC50 at 24 h [3]: > 100 µM

SMILES: Cc1ccc(C(=O)NCCc2c[nH]c3cccc(Br)c23)c(O)c1
viability at 10 µM [1]: 73.1%
IC50 at 24 h [2]: > 100 µM
IC50 at 24 h [3]: > 100 µM

SMILES: CNc1ccc2[nH]cc(CCNC(=O)c3ccc(C)cc3O)c2c1
viability at 10 µM [1]: 82.4%
IC50 at 24 h [2]: > 100 µM
IC50 at 24 h [3]: 95.4 µM

SMILES: O=C(NCCc1c[nH]c2ccccc12)c1ccccc1O
viability at 10 µM [1]: 83%
IC50 at 24 h [2]: > 100 µM
IC50 at 24 h [3]: 55.1 µM

SMILES: Cc1ccc(C(=O)NCCc2c[nH]c3cc(Cl)ccc23)c(O)c1
viability at 10 µM [1]: 64.6%
IC50 at 24 h [2]: 63.1 µM
IC50 at 24 h [3]: 52.5 µM

SMILES: Cc1ccc(C(=O)NCCc2c[nH]c3ccccc23)c(O)c1
viability at 10 µM [1]: 88.8%
Activity [4]: 4.4
IC50 at 24 h [2]: > 100 µM
Activity [10]: 74%
IC50 at 24 h [3]: > 100 µM

SMILES: Cc1ccc(C(=O)NCCc2c[nH]c3c(Cl)cccc23)c(O)c1
viability at 10 µM [1]: 74.8%
IC50 at 24 h [2]: > 100 µM
IC50 at 24 h [3]: 62.2 µM

SMILES: Cc1ccc(C(=O)NCCc2c[nH]c3c(Br)cccc23)c(O)c1
viability at 10 µM [1]: 78.1%
IC50 at 24 h [2]: > 100 µM
IC50 at 24 h [3]: 52.8 µM

SMILES: COc1ccc(C(=O)NCCc2c[nH]c3ccccc23)c(O)c1
viability at 10 µM [1]: 86.9%
IC50 at 24 h [2]: 52.6 µM
IC50 at 24 h [3]: 68 µM

SMILES: COc1cccc(O)c1C(=O)NCCc1c[nH]c2ccccc12
viability at 10 µM [1]: 59.2%
IC50 at 24 h [2]: 8.06 µM
IC50 at 24 h [3]: 21.7 µM

SMILES: COc1cc2[nH]cc(CCNC(=O)c3ccc(C)cc3O)c2cc1OC
viability at 10 µM [1]: 75%
IC50 at 24 h [2]: 54.6 µM
IC50 at 24 h [3]: 26.5 µM

SMILES: Cc1ccc(C(=O)NCCc2c[nH]c3cc(Br)ccc23)c(O)c1
viability at 10 µM [1]: 66.2%
IC50 at 24 h [2]: 70.8 µM
IC50 at 24 h [3]: 46.6 µM

SMILES: Cc1cccc(O)c1C(=O)NCCc1c[nH]c2ccccc12
viability at 10 µM [1]: 88.4%
IC50 at 24 h [2]: 60 µM
IC50 at 24 h [3]: 43.6 µM

SMILES: COc1cccc2c(CCNC(=O)c3ccc(C)cc3O)c[nH]c12
viability at 10 µM [1]: 91.5%
Activity [4]: 2
IC50 at 24 h [2]: 73.2 µM
IC50 at 24 h [3]: 90.9 µM

SMILES: COc1cccc2[nH]cc(CCNC(=O)c3ccc(C)cc3O)c12
viability at 10 µM [1]: 74%
IC50 at 24 h [2]: 78.4 µM
IC50 at 24 h [3]: 96 µM

solubility thermodynamic at 72 h [11]: 1840 µg/mL (≈ 10.6 mM)
SMILES: CC1=NN(c2ccccc2)C(=O)C1 [EDARAVONE]
viability at 10 µM [1]: 80.9%
Activity [4]: 2.8
Activity [6]: 1.78%
Activity [10]: 67.9%
viability at 10 µM [7]: 92.1%
Activity [8]: 5.39%
Activity [9]: 0.72%

SMILES: COc1cc(C)cc2[nH]cc(CCNC(=O)c3ccc(C)cc3O)c12
viability at 10 µM [1]: 85.4%
IC50 at 24 h [2]: 73 µM
IC50 at 24 h [3]: 52.9 µM

SMILES: Cc1ccc(C(=O)NCCc2c[nH]c3cc4c(cc23)OCO4)c(O)c1
viability at 10 µM [1]: 82.8%
IC50 at 24 h [2]: > 100 µM
IC50 at 24 h [3]: 98.8 µM

SMILES: O=C(NCCc1c[nH]c2ccccc12)c1cc(Cl)ccc1O
viability at 10 µM [1]: 77.2%
IC50 at 24 h [2]: > 100 µM
IC50 at 24 h [3]: > 100 µM

SMILES: Cc1ccc(C(=O)NCCc2c[nH]c3cccc(F)c23)c(O)c1
viability at 10 µM [1]: 94.5%
Activity [4]: 3.7
IC50 at 24 h [2]: 84.6 µM
IC50 at 24 h [3]: 81.7 µM

SMILES: Cc1ccc(C(=O)NCCc2c[nH]c3ccc(C)cc23)c(O)c1
viability at 10 µM [1]: 89.5%
Activity [4]: 3.1
IC50 at 24 h [2]: > 100 µM
IC50 at 24 h [3]: 79.3 µM

SMILES: Cc1ccc(C(=O)NCCc2c[nH]c3cccc(C)c23)c(O)c1
viability at 10 µM [1]: 52.4%
IC50 at 24 h [2]: > 100 µM
IC50 at 24 h [3]: > 100 µM

SMILES: Cc1cccc(C(=O)NCCc2c[nH]c3ccccc23)c1O
viability at 10 µM [1]: 87.2%
IC50 at 24 h [2]: 51.5 µM
IC50 at 24 h [3]: 36.1 µM
